Reference: ChEMBL document CHEMBL1201862, “PubChem BioAssay data set” (2004)
Active and inactive are the calls of the source.

Key:
[1] = Luminescent dose response cell-based high throughput screening assay for inhibitors of the Janus kinase 2 mutant JAK2V617F. [Related pubchem assays: 1446 (Primary screen.), 1521 (Confirmation assay.), 1486 (Counter screen.)]; type: functional
Estrogen receptor beta [2] = target: T1, Estrogen receptor beta (Homo sapiens, UniProt Q92731);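 also: recombinant ER-beta bound to coactivator SRC1 peptide in presence of estradiol agonist; inhibitors block coactivator peptide binding and lower the FRET signal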
[3] = target: Heat shock protein HSP 90-alpha (Homo sapiens, UniProt P07900); experiment: Luminescence-based dose response biochemical high throughput screening assay for inhibitors of the Heat Shock Protein 90 (HSP90). [Related pubchem assays: 1831 (Summary AID.), 1846 (Confirmation screen.), 1789 (Primary screen.)]
Estrogen receptor beta [4] = target: T1, Estrogen receptor beta; experiment: ERβ–SRC-3 coactivator interaction inhibitors, confirmation, orthogonal assay, biochemical, ELISA, streptavidin-HRP readout (AID 1060)
Cytochrome P450 2D6 = Cytochrome P450 2D6 (Homo sapiens, UniProt P10635);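 also: CYP2D6 member of a cytochrome P450 panel assay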
[5] = target: T2, Rac GTPase-activating protein 1 (Homo sapiens, UniProt Q9H0H5); experiment: MgcRacGAP GTPase-activating activity inhibitors, confirmation, biochemical, ADP Hunter fluorescence, primary and confirmatory (AID 624330); type: functional
T2 sequence (Q9H0H5 whole entry): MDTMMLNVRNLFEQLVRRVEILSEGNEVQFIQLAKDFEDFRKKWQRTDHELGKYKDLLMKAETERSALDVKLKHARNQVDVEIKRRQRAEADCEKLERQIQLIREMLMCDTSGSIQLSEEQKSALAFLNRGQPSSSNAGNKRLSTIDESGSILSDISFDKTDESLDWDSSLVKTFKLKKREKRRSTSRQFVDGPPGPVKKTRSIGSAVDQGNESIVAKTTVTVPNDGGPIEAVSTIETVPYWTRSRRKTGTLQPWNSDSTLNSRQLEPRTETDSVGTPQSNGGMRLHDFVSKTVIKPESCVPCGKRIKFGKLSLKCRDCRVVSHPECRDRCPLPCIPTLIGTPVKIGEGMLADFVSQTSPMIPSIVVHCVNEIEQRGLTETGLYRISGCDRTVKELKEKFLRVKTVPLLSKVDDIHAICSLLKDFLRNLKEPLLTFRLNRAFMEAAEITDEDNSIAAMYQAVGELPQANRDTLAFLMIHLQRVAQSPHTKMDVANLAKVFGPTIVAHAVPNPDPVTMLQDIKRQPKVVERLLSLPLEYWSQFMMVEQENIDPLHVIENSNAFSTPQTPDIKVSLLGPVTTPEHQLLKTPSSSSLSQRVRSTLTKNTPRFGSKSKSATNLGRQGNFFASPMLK

[6] = HeLa cell cytotoxicity, dose response, cytotoxicity control for MgcRacGAP inhibitor project (AID 624300); type: functional
[7] = target: T3, Mannose-6-phosphate isomerase (Homo sapiens, UniProt P34949); experiment: inhibitors of human PMI, primary screen, biochemical, fluorescence intensity, coupled assay (AID 1209)
T3 sequence (P34949 whole entry): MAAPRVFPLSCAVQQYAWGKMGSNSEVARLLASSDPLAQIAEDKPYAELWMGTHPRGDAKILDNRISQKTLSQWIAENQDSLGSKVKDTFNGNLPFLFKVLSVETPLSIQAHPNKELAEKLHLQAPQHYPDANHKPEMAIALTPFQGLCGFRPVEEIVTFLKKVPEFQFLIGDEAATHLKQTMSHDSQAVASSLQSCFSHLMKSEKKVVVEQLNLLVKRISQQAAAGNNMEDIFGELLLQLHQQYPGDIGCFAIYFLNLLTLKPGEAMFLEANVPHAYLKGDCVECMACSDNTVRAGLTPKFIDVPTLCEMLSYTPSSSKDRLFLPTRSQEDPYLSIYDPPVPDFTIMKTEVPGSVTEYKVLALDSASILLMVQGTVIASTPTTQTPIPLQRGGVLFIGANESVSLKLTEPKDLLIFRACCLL

Nonstructural protein 1 = Nonstructural protein 1 (Influenza A virus, UniProt Q194T2); type: functional, Influenza A virus (A/California/07/2009(H1N1))
[8] = target: Solute carrier family 12 member 2/member 5 (Homo sapiens, UniProt P55011+Q9H2X9); experiment: KCC2 and NKCC1 inhibition by rubidium flux, cell-based, NKCC1 counter-screen (AID 1734); type: functional, HEK293
NADPH oxidase 1 = NADPH oxidase 1 (Homo sapiens, UniProt Q9Y5S8); experiment: Late-stage luminescence-based cell-based dose response assay to identify inhibitors of NADPH oxidase 1 (NOX1): Purchased analogs 2.; type: functional
Estrogen receptor = target: T4, Estrogen receptor (Homo sapiens, UniProt P03372); experiment: potentiators of ERα–SRC-1 coactivator binding, dose response, biochemical, TR-FRET, ERα LBD (AID 737)
T4 sequence (P03372 whole entry): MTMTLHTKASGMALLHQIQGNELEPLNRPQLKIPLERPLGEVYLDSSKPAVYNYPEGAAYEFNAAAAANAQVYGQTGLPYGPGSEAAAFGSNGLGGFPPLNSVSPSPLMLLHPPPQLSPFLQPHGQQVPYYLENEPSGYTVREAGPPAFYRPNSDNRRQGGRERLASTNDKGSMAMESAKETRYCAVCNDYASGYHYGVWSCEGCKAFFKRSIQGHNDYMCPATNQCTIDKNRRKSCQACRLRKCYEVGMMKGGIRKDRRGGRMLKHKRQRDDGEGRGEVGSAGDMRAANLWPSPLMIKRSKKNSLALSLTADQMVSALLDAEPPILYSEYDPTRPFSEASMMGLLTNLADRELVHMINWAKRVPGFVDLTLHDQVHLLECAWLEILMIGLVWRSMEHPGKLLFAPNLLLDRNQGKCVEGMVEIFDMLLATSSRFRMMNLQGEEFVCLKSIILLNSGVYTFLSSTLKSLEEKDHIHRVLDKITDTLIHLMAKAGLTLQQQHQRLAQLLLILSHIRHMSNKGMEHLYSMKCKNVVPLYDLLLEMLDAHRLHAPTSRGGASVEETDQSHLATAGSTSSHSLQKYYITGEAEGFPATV

14-3-3 protein gamma = 14-3-3 protein gamma (Homo sapiens, UniProt P61981); experiment: modulators of 14-3-3 gamma client binding – dose response (AID 711); type: functional
Chain of 14-3-3 protein gamma (P61981 whole entry): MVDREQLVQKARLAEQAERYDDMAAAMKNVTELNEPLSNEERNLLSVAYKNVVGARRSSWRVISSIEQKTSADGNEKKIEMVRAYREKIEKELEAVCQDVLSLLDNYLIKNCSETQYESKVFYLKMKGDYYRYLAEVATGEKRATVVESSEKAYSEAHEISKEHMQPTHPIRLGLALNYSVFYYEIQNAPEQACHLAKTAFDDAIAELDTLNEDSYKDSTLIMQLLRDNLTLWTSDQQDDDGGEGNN

T1 sequence (Q92731 whole entry): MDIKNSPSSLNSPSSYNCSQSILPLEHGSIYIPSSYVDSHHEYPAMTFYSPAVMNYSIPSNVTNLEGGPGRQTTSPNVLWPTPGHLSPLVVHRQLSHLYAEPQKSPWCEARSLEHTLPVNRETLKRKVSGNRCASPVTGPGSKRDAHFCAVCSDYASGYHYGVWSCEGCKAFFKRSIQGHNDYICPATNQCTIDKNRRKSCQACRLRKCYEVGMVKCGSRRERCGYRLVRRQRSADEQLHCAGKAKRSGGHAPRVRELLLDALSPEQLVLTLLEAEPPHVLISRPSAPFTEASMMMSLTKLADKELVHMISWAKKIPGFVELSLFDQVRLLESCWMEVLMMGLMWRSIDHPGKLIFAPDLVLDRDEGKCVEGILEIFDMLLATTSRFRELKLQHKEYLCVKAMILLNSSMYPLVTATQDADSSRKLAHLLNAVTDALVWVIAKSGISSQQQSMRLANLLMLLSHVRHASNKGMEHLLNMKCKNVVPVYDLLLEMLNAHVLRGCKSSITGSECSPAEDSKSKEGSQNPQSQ
Chain of Nonstructural protein 1 (Q194T2 whole entry): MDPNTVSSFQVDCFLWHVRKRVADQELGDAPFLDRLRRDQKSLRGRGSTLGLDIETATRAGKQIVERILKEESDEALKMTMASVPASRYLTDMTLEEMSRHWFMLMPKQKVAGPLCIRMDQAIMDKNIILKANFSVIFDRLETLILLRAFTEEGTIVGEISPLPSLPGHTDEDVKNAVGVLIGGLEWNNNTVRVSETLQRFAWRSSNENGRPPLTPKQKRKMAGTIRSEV
Chain of NADPH oxidase 1 (Q9Y5S8 whole entry, the tested form may be a part): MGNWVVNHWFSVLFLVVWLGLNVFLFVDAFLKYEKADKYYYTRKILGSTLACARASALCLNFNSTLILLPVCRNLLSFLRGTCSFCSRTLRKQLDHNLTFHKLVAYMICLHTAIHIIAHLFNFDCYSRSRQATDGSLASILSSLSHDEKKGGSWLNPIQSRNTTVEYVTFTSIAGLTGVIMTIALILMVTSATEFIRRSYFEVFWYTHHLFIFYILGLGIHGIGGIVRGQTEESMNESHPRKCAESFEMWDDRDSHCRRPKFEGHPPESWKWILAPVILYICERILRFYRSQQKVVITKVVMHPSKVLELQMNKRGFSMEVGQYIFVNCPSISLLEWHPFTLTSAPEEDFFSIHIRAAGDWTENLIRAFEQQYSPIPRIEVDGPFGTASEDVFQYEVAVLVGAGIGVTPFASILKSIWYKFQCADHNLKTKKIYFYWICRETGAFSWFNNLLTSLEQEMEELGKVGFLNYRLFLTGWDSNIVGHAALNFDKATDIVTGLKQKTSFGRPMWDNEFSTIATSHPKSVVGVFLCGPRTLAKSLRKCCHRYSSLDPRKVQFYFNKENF
Chain of Cytochrome P450 2D6 (P10635 whole entry): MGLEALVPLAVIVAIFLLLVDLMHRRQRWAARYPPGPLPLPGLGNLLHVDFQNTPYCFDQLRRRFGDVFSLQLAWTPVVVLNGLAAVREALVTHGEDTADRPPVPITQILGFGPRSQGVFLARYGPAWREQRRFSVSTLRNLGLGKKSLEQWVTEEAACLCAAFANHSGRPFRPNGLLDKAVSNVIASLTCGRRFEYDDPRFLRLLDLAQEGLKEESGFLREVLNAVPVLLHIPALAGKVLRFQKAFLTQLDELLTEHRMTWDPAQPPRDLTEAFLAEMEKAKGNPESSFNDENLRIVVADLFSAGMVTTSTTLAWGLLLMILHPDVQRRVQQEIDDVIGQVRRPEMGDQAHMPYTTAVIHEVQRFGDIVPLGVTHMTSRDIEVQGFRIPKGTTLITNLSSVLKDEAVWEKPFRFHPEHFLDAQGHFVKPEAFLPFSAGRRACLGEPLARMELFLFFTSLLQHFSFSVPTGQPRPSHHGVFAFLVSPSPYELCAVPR

Compound: COc1ccc(-c2cnc3c(c2)CCC3(C#N)C#N)cc1
- IC50 [1]: 0.768 µM (active)

Compound: Cc1nc2cc(C(=O)O)ccc2[nH]1
- IC50 (Estrogen receptor beta [2]): 24.7 µM (active)
- IC50 [3]: 7.21 µM (active)
- IC50 (Estrogen receptor beta [4]): 99.5 µM (not active)

Compound: CC(C)/N=c1\scc(-c2ccco2)n1/N=C/c1ccc(O)c(O)c1
- AC50 (Cytochrome P450 2D6): 14.1 µM (inconclusive)
- IC50 [5]: 56.3 µM (active)
- CC50 [6]: 99.4 µM (active)
- IC50 [7]: > 50 µM (not active)
- IC50 (Nonstructural protein 1): 39.3 µM (active)

Compound: O=C(Cn1cnc2c(nnn2Cc2ccccc2)c1=O)N1CCCc2ccccc21
- IC50 [8]: 6 µM (active)

Compound: COc1ccc(/C=N/Nc2c(F)c(F)c(F)c(F)c2F)cc1
- IC50 (NADPH oxidase 1): > 17 µM (not active)

Compound: CCOC(=O)c1cc2c(c(CSc3nc4ccccc4c(=O)n3Cc3ccco3)c1)OCOC2
- EC50 (Estrogen receptor): 3.27 µM (active)

Compound: COc1ccc(C(=O)Oc2ccc(C(C)=O)cc2)c(OC)c1
- IC50 (14-3-3 protein gamma): > 50 µM (not active)
